From patent US20200087340A1, “LIF/LIFR ANTAGONIST IN ONCOLOGY AND NONMALIGNANT DISEASES” (Evestra, Inc., priority 2018, published 2020)

Key:
[1] = tested on: human endometrial stromal cells (HESC); assay: Decidualization assay, phalloidin staining of actin cytoskeleton; type: cell-based
Experimental: Decidualization studies: The above compounds were investigated originally for the treatment of endometriosis. The compounds were tested in a decidualization assay using human endometrial stromal fibroblast (HESC) cells. In preparation for the possibility of embryonic attachment, the stromal cells in the endometrium undergo extensive waves of proliferation, remodeling, and terminal differentiation that transforms the endometrium into an endocrine gland, called decidua. This transformation is called decidualization and it is under the control by ovarian hormones.
The level of apoptosis increases from the proliferative phase through menstrual cycle and peaks at menses. […] However if the cells are subjected to conditions that induce decidualization, stromal cells will begin to differentiate instead of undergoing apoptosis.
Rationale of this assay is described above in mechanism of action studies section. Briefly, human stromal endometrial cells were plated in the presence and absence of progesterone and allow undergoing decidualization. The cells treated with test compounds of different concentrations and stained for actin cytocketal morphology using phalloidin staining and monitored under fluorescent microscope.

MCF-7 cells = assay: P53 / MDM2 levels in MCF-7 cells; type: cell-based, human
[2] = tested on: various cancer cells lines; assay: Cytotoxicity assays in various cancer cell lines; type: cell-based
[3] = tested on: human umbilical vein endothelial cells (HUVEC); assay: Matrigel in vitro HUVECs tube formation assay (angiogenesis); type: cell-based; conditions: 1 μM concentration, all measured time points
Experimental: Matrigel in vitro HUVECs tube formation assay: The tube formation assay was performed using 12-well plate coated with 100 μL Matrigel basement membrane matrix (BD Bioscience) per well and polymerized at 37° C. for 30 min. Human umbilical vascular endothelial cells (HUVECs) suspended in M199 medium containing 2% FBS were plated on the Matrigel at a density of 2×10^5 cells/well. […] After 8 h, the Matrigel-induced morphological changes were photographed and the extent of capillary tube formation was evaluated by measuring the total tube length per field.

[4] = tested on: Patient derived tumor (melanoma); assay: Immunohistochemistry analysis of treated patient derived tumor; type: cell-based, human; conditions: 10 nM and 1 uM for 5 days
Experimental: Patient derived tumor (melanoma) was treated with the compounds at 10 nM and 1 uM for 5 days in RPMI medium and harvested on day 6 using established protocol and immunohistochemistry was performed for different antibodies including p53, LIF, MDM2, pSTAT3, Ki67.

T47D cells = assay: Soft agar colony formation assay; type: cell-based, human; conditions: 100 nM concentration
Experimental: Colonies of cancer cells formed in soft agar in the presence and absence of the testing compounds is a standard assay to interpret in-vitro tumorigenic potential in the basal layer. Agar was prepared by mixing 1% DNA grade agar melted and cooled to 40° C. with an equal volume of (2×) Dulbecco's Modified Eagle's Medium (DMEM) to obtain 0.5% agar that was dispersed in a 6-well plate and allowed to solidify. A total of 0.6% agar was prepared in RPMI medium and mixed together with T47D cells (0.5×10^6 cells/mL) and immediately plated on the basal layer in the presence or absence of testing compounds. The cultures were incubated at 37° C. in a CO2 incubator for 2 weeks, and colonies were stained with 0.005% crystal violet and observed under a light microscope.

[5] = tested on: LIF-overexpressing MCF-7 (MCF-7 LIF) human breast cancer cells; assay: LIF specificity assay, cytotoxicity; type: cell-based; conditions: for Fold Change: cytotoxicity MCF-7 vs. MCF-7 LIF (specificity towards LIF)
A549 (Lung cancer) = assay: Short term (72 h) cytotoxicity assay; type: cell-based; conditions: Homo sapiens, A549, 72 h
[6] = tested on: unmodified MCF-7 human breast cancer cells; assay: LIF specificity assay, cytotoxicity; type: cell-based; conditions: MCF7
U87-MU (Glioma cells) = assay: Short term (72 h) cytotoxicity assay; type: cell-based; conditions: Glioma cell
U251 (Glioma) = assay: Short term (72 h) cytotoxicity assay; type: cell-based; conditions: Homo sapiens, U-251; U251, 72 h
[7] = tested on: FC 1295 and imPSCc-2 organoids; assay: Pancreatic cancer / stellate cell line derived organoid system; type: cell-based, Murine; conditions: as compared to control
Experimental: Most solid tumors have extensive stroma that not only facilitates the tumor progression but also impedes the delivery of the chemotherapeutic agents. Due to lack of any in-vitro system, presently it is difficult to evaluate any stroma-targeted therapies. Therefore, we developed an organoid system using labeled pancreatic cancer and stellate cell lines. Murine (FC 1295 and […]-2) cell lines cultured in different combinations were grown as an organoid system using matrigel. The organoids, starting day four were treated with either gemcitabine or EC359, a novel mifepristone derived steroidal cytotoxic agent that targets tumor stroma, or both in combination. qRT-PCR analysis of activated stroma signature genes was performed on the mRNA isolated from different treatment groups. H&E, immunohistochemistry, and western blot analysis were performed to further validate our findings. […] Our novel cell line derived organoid model can be utilized for fast, and inexpensive evaluation of stroma-targeted therapies.

Structure (SMILES): C#CC(F)(F)[C@]1(O)CCC2C3CCC4=CC(=O)CCC4=C3C(c3ccc(C(C)=O)cc3)C[C@@]21C (stereo partly drawn) [EC332, 17α-(1,1-difluoro-2-propyn-1-yl)-17β-hydroxy-11β-[4-p-(acetyl)phenyl]estra-4,9-dien-3-one]
- actin cytoskeletal disruption (phalloidin staining) [1]: cytoskeletal disruption
- P53 levels / MDM2 (MCF-7 cells): restore P53 levels by inhibiting MDM2
- cytotoxicity (IC50's) in cytotoxicity assays [2]: low nanomolar
- tube formation [3]: complete abrogation of tube formation
- apoptosis, p53, MDM2, LIF mediated STAT3 phosphorylation (immunohistochemistry) [4]: induce apoptosis and restore p53 by inhibiting MDM2 and LIF mediated STAT3 phosphorylation
- colonies formed (T47D cells): complete inhibition or no colonies were formed

Structure (SMILES): C#CC(F)(F)[C@]1(O)CCC2C3CCC4=CC(=O)CCC4=C3C(c3ccc(-n4ccnc4)cc3)C[C@@]21C (some centres unmarked) [EC351]
- melting point: 175 to 178 °C

Structure (SMILES): C#CC(F)(F)[C@]1(O)CCC2C3CCC4=CC(=O)CCC4=C3C(c3ccc(N(C)C)cc3)C[C@@]21C (stereo partly drawn) [EC352, 17α-(1,1-difluoro-2-propyn-1-yl)-17β-hydroxy-11β-[4-p-(dimethylamino)phenyl]estra-4,9-dien-3-one]
- IC50 ([5]; Homo sapiens, MCF7, LIF-overexpressing MCF-7): > 10000 nM
- Fold Change [5]: 0
- IC50 (A549 (Lung cancer)): 45 nM
- IC50 [6]: > 10000 nM
- IC50 (U87-MU (Glioma cells)): 50 nM
- IC50 (U251 (Glioma)): 40 nM

Structure (SMILES): C#CC(F)(F)[C@]1(O)CCC2C3CCC4=CC(=O)CCC4=C3C(c3ccc(OC)cc3)C[C@@]21C (stereo partly drawn) [EC356, 17α-(1,1-difluoro-2-propyn-1-yl)-17β-hydroxy-11β-[4-p-(methoxy)phenyl]estra-4,9-dien-3-one]
- Fold Change [5]: 2

Structure (SMILES): C#CC(F)(F)[C@]1(O)CCC2C3CCC4=CC(=O)CCC4=C3C(c3ccc(C(C)(C)C)cc3)C[C@@]21C (stereo partly drawn) [EC357, 17α-(1,1-difluoro-2-propyn-1-yl)-17β-hydroxy-11β-[4-p-(t-butyl)phenyl]estra-4,9-dien-3-one]
- melting point: 127 to 129 °C

Structure (SMILES): C#CC(F)(F)[C@]1(O)CCC2C3CCC4=CC(=O)CCC4=C3C(c3ccc(C(=C)C)cc3)C[C@@]21C (stereo partly drawn) [EC358, 17α-(1,1-difluoro-2-propyn-1-yl)-17β-hydroxy-11β-[4-p-(1-methylethenyl)phenyl]estra-4,9-dien-3-one]
- Fold Change [5]: 2

Structure (SMILES): C#CC(F)(F)[C@]1(O)CCC2C3CCC4=CC(=O)CCC4=C3C(c3ccc(C4CCCCC4)cc3)C[C@@]21C (stereo partly drawn) [EC360, 17α-(1,1-difluoro-2-propyn-1-yl)-17β-hydroxy-11β-[4-p-(cyclohexyl)phenyl]estra-4,9-dien-3-one]
- Fold Change [5]: 2

Structure (SMILES): C#CC(F)(F)[C@]1(O)CCC2C3CCC4=CC(=O)CCC4=C3C(c3ccc(S(=O)(=O)C4CC4)cc3)C[C@@]21C (stereo partly drawn) [EC361, 17α-(1,1-difluoro-2-propyn-1-yl)-17β-hydroxy-11β-[4-p-(cyclopropylsulfonyl)phenyl]estra-4,9-dien-3-one]
- Fold Change [5]: 20

Structure (SMILES): C#CC(F)(F)[C@]1(O)CCC2C3CCC4=CC(=O)CCC4=C3C(c3ccc(CCCCCCC)cc3)C[C@@]21C (stereo partly drawn) [EC362, 17α-(1,1-difluoro-2-propyn-1-yl)-17β-hydroxy-11β-[4-p-(n-heptyl)phenyl]estra-4,9-dien-3-one]
- Fold Change [5]: 2

Structure (SMILES): Nc1ccn([C@@H]2O[C@H](CO)[C@@H](O)C2(F)F)c(=O)n1 [Gemcitabine, reference compound]
- relative reduction in GFP fluorescence [7]: 98%
